According to article PMC13179060, “The role of ATP synthase subunit e (ATP5I) in mediating the metabolic and antiproliferative effects of metformin in cancer cells” (eLife, 2026):

Experiments:
[1] = biological target: T1, ATP synthase subunit e (ATP5I) (Homo sapiens, UniProt P56385); experiment: SPR, BFB immobilized on streptavidin chip, recombinant ATP5I as analyte, steady-state fit; supported by streptavidin pull-down and immunoblot; format: binding
T1 construct: gene ATP5ME; full-length human ATP5I, N-terminal 6x-His-tagged, expressed in E. coli (mainly oligomers, mostly decamers)
T1 sequence (P56385 1-69): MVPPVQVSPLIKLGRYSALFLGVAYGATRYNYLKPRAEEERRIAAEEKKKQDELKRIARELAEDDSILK

[2] = biological target: the molecule itself; experiment: SEC; gel filtration of purified rATP5I (legend: Superose 12 10/300 GL for the profile, Superose 6 10/300 GL for the calibration with thyroglobulin, γ-globulin, myoglobin and vitamin B12)

N=C(N)NC(=N)NCCCCCCNC(=O)CCCCC1SCC2NC(=O)NC21 (centres unmarked) [compound 3, BFB]
Kd [1]: ~11.1 µM

B1: N-terminal 6x-His-tagged ATP5I (ATP synthase subunit e), recombinant (natural protein, human, UniProt P56385 1-69, looked up)
chain: MVPPVQVSPLIKLGRYSALFLGVAYGATRYNYLKPRAEEERRIAAEEKKKQDELKRIARELAEDDSILK
notes: The vector is pET-TEV; The protein was extracted under denaturing conditions and brought back into native buffer on the column; also called rATP5I; recombinant ATP5I; not shown: His6, N-terminal, kept
stoichiometry N [2]: 10
